{"source": "patent US8404803B2", "about": "“Cancer-associated antigen analogue peptides and uses thereof” (Chugai Seiyaku Kabushiki Kaisha, priority 2005, dated 2013)", "assay_type_in_all_cases": "cell-based, human", "key": {"[1]": {"test_system": "CD4-positive/TNFα-positive T cells", "assay": "Flow cytometry detection of CD4 and TNFα in OVCA11-stimulated T cells", "conditions": "typical example, FIG. 12; after OVCA11 stimulation (0.44% before)", "excerpt": "(§1) A number of mouse-derived anti-human specific monoclonal antibodies with different fluorescences (hereinafter referred to as ‘monoclonal antibodies’) were used to simultaneously analyze by double-staining the CD markers CD4 and CD8, which are on the T cell membranes, and the cytokines within the T cells. As the monoclonal antibodies, products labeled with either fluorescent substance phycoerythrin (hereinafter ‘PE’) or fluorescein isothiocyanate (hereinafter ‘FITC’) were used (Miltenyi Biotec, Glandbach, Germany). For detection, a flow cytometry apparatus FACScan (Becton Dickinson) was used to measure the frequency of cells to which the monoclonal antibodies had bound. Positive cells are automatically detected by the flow cytometry apparatus.\n(§2) Since positive cells cannot be identified after the cytokines have been secreted to the outside of the cells, detection was performed at a stage where the cytokines are inside the cells. […]\n(§3) T cells activated in an antigen-specific manner are known to produce tumor necrosis factor α (TNFα) when they injure target cells, such as tumor cells. Therefore, the OVCA11-stimulated T cells obtained in [Example 3] were analyzed by flow cytometry to determine whether they indeed produced TNFα, using a similar method to [Example 3] and combinations of CD4 and TNFα, and CD8 and TNFα."}, "[2]": {"test_system": "CD4-positive/IFNγ-producing T cells", "assay": "Flow cytometry detection of CD4-positive/IFNγ-positive T cells in peptide-stimulated mononuclear cell samples", "conditions": "for CD4+ IFNγ+ number of positive samples/tested samples: mononuclear cell samples cultured 48 hours with peptide and IL-2; for CD4+ IFNγ+ number of positive samples/tested samples / CD4+ IFNγ+ number of positive samples/tested samples × 100 (%): positive sample > mean of control + 2 × SD (OVCA10-MNC group, 1.378%)", "description": "(§4) All operations concerning cell culture were performed aseptically. First, human peripheral mononuclear cell fractions (comprising T cells, B cells, macrophages and such; hereinafter referred to as “mononuclear cell samples”) were prepared from the blood samples by density gradient centrifugation. Next, these mononuclear cells were suspended at 1×10^5 cell/ml in complete media having the following composition: • Complete Medium: RPMI1640 culture medium (Gibco Laboratories Inc., Grand Island, N.Y.) to which 10% fetal bovine serum (Cell Culture Laboratories, Cleveland, Ohio), 0.2 mM L-glutamine, 100 U/mL penicillin, 100 μg/mL streptomycin (Gibco Laboratories Inc.), and 0.2 ng/mL recombinant human IL-2 (Dainippon Pharmaceutical Co., Tokyo, Japan) have been mixed.\n(§5) Theses mononuclear cell samples were placed still in V-bottomed 96-well tissue culture plastic plates (Flow Laboratories Inc., Horsham, Pa.) in the presence and absence of peptides, and cultured for 48 hours at 37° C. in a CO2 culture apparatus (Sanyo Medica, Osaka, Japan).\nas §1\n(§6) Since positive cells cannot be identified after the cytokines have been secreted to the outside of the cells, detection was performed at a stage where the cytokines are inside the cells. Therefore, the Cytofix/Cytoperm Kit (Pharmingen, San Diego, Calif.) was used for the analysis, using methods recommended by the manufacturer and a positive control for detection recommended by the kit (Prussin C, Metcalfe D, Detection of intracytoplasmic cytokine using flow cytometry and directly conjugated anti-cytokine antibodies, J Immunol Meth. 188: 117-128, 1995). Specifically, brefeldin A (Pharmingen, San Diego, Calif.) was added at 0.7 μl/1 ml/well to stop protein production in the Golgi apparatus, and the peptide-stimulated mononuclear cell samples were treated at 37° C. for two hours. Next, the culture plates were placed on ice and the reaction was stopped by adding physiological saline at 4° C. The mononuclear cell samples were transferred into 15 ml tubes as though by washing with the physiological saline at 4° C., and were then centrifuged at 1600 rpm for ten minutes to remove the supernatant.\n(§7) First, to dye CD4s on the cell surface, 10 μl of FITC-labeled mouse anti-human CD4 was added, with CD8 monoclonal antibody as a control, and this was reacted at 4° C. for 30 minutes. The cells were then separated with 0.5% bovine serum albumin/physiological saline at 4° C., then 0.5% bovine serum albumin/physiological saline at 4° C. was added thereto, and this was centrifuged at 1600 rpm for ten minutes at 4° C. to remove the supernatant.\n(§8) Next, the mononuclear cell samples were fixed and their cell membranes were permeabilized. The cells were suspended in 250 μl of Cytofix/Cytoperm (Pharmingen) solution and reacted at 4° C. for 20 minutes. 10 μl of the aforementioned fluorescently labeled anti-IFNγ monoclonal antibody or anti-IL-4 monoclonal antibody was added to these mononuclear cell samples and reacted at 4° C. for 30 minutes. Then, the cells were separated by adding 0.5% bovine serum albumin/physiological saline at 4° C., and 0.5% BSA/PBS at 4° C. was further added thereto. After centrifugation at 1600 rpm for ten minutes at 4° C., the supernatant was removed. […]"}, "[3]": {"test_system": "CD4-positive/IL-4-producing T cells", "assay": "Flow cytometry detection of CD4-positive/IL-4-positive T cells in peptide-stimulated mononuclear cell samples", "conditions": "for CD4+ IL-4+ number of positive samples/tested samples: mononuclear cell samples cultured 48 hours with peptide and IL-2; for CD4+ IL-4+ number of positive samples/tested samples / CD4+ IL-4+ number of positive samples/tested samples × 100 (%): positive sample > mean of control + 2 × SD (OVCA10-MNC group, 1.148%)", "description": "as §4, §5, §1, §6, §7, §8"}, "[4]": {"test_system": "CD8-positive/TNFα-positive T cells", "assay": "Flow cytometry detection of CD8 and TNFα in OVCA11-stimulated T cells", "conditions": "typical example, FIG. 12; after OVCA11 stimulation (0.28% before)", "excerpt": "as §1, §2, §3"}, "CD4-positive T cells": {"test_system": "CD4-positive T cells", "assay": "Analysis of the CD4-positive T cell epitope (T cells positive for IL-4 or IFNγ)", "conditions": "peptides with ten amino acid residues reproducing the MUC16 primary sequence", "description": "The results were recorded as: number of double staining-positive cells/total number of counted mononuclear cells ×100=positive cell frequency (%). Furthermore, peptide antigen-specific T cell reactions were determined to be positive when the individual frequencies of positive cells in the mononuclear cell samples were the same as or greater than the mean plus two standard deviations (mean+2SD) of the negative control group, where the negative control was a mononuclear cell sample group that had been stimulated with analogue peptide (OVCA10 stimulation). In addition, each of the peptide-stimulated groups were compared by using t-tests to measure the significant difference.\nNext, to determine the T cell epitope (based not on the analogues but on the original sequence), the present inventors went back to the original amino acid sequence of the 11-times repeat sequences of MUC16 from which the 30 amino acid residue sequence: […] (SEQ ID NO: 45) common to OVCA11 and OVCA12 was derived. Furthermore, the sequence was divided into lots of ten amino acid residues to prepare OVCA101 (SEQ ID NO: 4), 102 (SEQ ID NO: 5), 103 (SEQ ID NO: 6), 104 (SEQ ID NO: 7), 105 (SEQ ID NO: 8), 106 (SEQ ID NO: 9), 107 (SEQ ID NO: 2), 108 (SEQ ID NO: 3), 109, 110, 111, 112, 113, 114, 115 (SEQ ID NO: 10) (FIG. 5), and T cells positive for IL-4 or IFNγ were detected using a method similar to the above."}}, "data": [{"sequence": "GHTAPGPLLVPFTLNFTITN (listed as Homo sapiens) [OVCA11]", "values": [{"measurement": "frequency of CD4-positive/TNFα-positive T cells", "setting": "[1]", "value": 5.76, "unit": "%"}, {"measurement": "frequency of CD4-positive/IFNγ-producing T cells compared to groups to which OVCA10 was added", "setting": "[2]; FIG. 11, peptide 15 μM, statistically significant difference", "value": "higher"}, {"measurement": "frequency of CD4-positive/INFγ-positive cells, mean±standard deviation", "setting": "[2]; all of the analyzed mononuclear cell samples (FIG. 11), peptide 15 μM", "value": "3.037±2.234", "unit": "%"}, {"measurement": "average number of IFNγ-positive cells", "setting": "[2]; healthy group", "value": 3.48, "unit": "%"}, {"measurement": "CD4+ IFNγ+ number of positive samples/tested samples", "setting": "[2]", "value": "26/33"}, {"measurement": "CD4+ IFNγ+ number of positive samples/tested samples", "setting": "[2]; listed as OVCA 11", "value": "26 of the 33"}, {"measurement": "average number of IFNγ-positive cells", "setting": "[2]; patient group", "value": 2.85, "unit": "%"}, {"measurement": "CD4+ IFNγ+ number of positive samples/tested samples × 100 (%)", "setting": "[2]", "value": 78.8, "unit": "%"}, {"measurement": "CD4+ IFNγ+ number of positive samples/tested samples × 100 (%)", "setting": "[2]; listed as OVCA 11", "value": 78.8, "unit": "%"}, {"measurement": "frequency of CD4-positive/IFNγ-positive T cells", "setting": "[2]; typical example of flow cytometry, FIGS. 9 and 10, IL-2 and analogue peptide added", "value": 3.12, "unit": "%"}, {"measurement": "frequency of CD4-positive/IL-4-producing T cells compared to groups to which OVCA10 was added", "setting": "[3]; FIG. 8, peptide 15 μM, statistically significant difference", "value": "higher"}, {"measurement": "frequency of CD4-positive/IL-4-positive cells, mean±standard deviation", "setting": "[3]; all the analyzed mononuclear cell samples (FIG. 8), peptide 15 μM", "value": "4.314±2.805", "unit": "%"}, {"measurement": "average number of IL-4-positive cells", "setting": "[3]; healthy group", "value": 4.89, "unit": "%"}, {"measurement": "CD4+ IL-4+ number of positive samples/tested samples", "setting": "[3]", "value": "27/32"}, {"measurement": "CD4+ IL-4+ number of positive samples/tested samples", "setting": "[3]; listed as OVCA 11", "value": "27 of the 32"}, {"measurement": "average number of IL-4-positive cells", "setting": "[3]; patient group", "value": 4.12, "unit": "%"}, {"measurement": "CD4+ IL-4+ number of positive samples/tested samples × 100 (%)", "setting": "[3]", "value": 84.4, "unit": "%"}, {"measurement": "CD4+ IL-4+ number of positive samples/tested samples × 100 (%)", "setting": "[3]; listed as OVCA 11", "value": 84.4, "unit": "%"}, {"measurement": "frequency of CD4-positive/IL-4-positive T cells", "setting": "[3]; typical example of flow cytometry, FIGS. 6 and 7, IL-2 and analogue peptide added", "value": 7.06, "unit": "%"}, {"measurement": "frequency of CD8-positive/TNFα-positive T cells", "setting": "[4]", "value": 3.98, "unit": "%"}]}, {"sequence": "PFTLNFTITN (listed as Homo sapiens) [OVCA107]", "values": [{"measurement": "recognized by CD4-positive T cells", "setting": "CD4-positive T cells", "value": "recognized by CD4-positive T cells"}, {"measurement": "frequency of CD4-positive/IFNγ-producing T cells at the time of epitope determination", "setting": "[2]; FIG. 16, peptide 15 μM", "value": "High frequency cases could be detected"}, {"measurement": "CD4-positive/IFNγ expression-positive frequencies, mean ± standard deviation", "setting": "[2]; epitope determination, patient's mononuclear cell samples (FIG. 16), peptide 15 μM", "value": "7.626±12.448", "unit": "%"}, {"measurement": "CD4+ IFNγ+ number of positive samples/tested samples", "setting": "[2]", "value": "3/8"}, {"measurement": "CD4+ IFNγ+ number of positive samples/tested samples × 100 (%)", "setting": "[2]", "value": 37.5, "unit": "%"}, {"measurement": "frequency of CD4-positive/IFNγ-positive T cells at the time of epitope determination", "setting": "[2]; typical example of flow cytometry, FIG. 15, IL-2 and peptide added", "value": 2.10, "unit": "%"}, {"measurement": "frequency of CD4-positive/IL-4-producing T cells at the time of epitope determination", "setting": "[3]; FIG. 14, peptide 15 μM", "value": "High frequency cases could be detected"}, {"measurement": "CD4-positive/IL-4-positive frequencies, mean ± standard deviation", "setting": "[3]; epitope determination, patient's mononuclear cell samples (FIG. 14), peptide 15 μM", "value": "8.036±12.870", "unit": "%"}, {"measurement": "CD4+ IL-4+ number of positive samples/tested samples", "setting": "[3]", "value": "5/9"}, {"measurement": "CD4+ IL-4+ number of positive samples/tested samples × 100 (%)", "setting": "[3]", "value": 55.6, "unit": "%"}, {"measurement": "frequency of CD4-positive/IL-4-positive T cells at the time of epitope determination", "setting": "[3]; typical example of flow cytometry, FIG. 13, IL-2 and peptide added", "value": 6.32, "unit": "%"}]}]}
